Laboratory results reported in patent EP0006772A1, “Thieno and furopyridone derivatives, process for their preparation and medicinal preparations containing them” (OMNIUM FINANCIER AQUITAINE POUR L'HYGIENE ET LA SANTE - …, priority 1978, dated 1980).
Like-named read-outs stand apart in the source and are kept apart here.

Columns and labels:
[1] = system: agrégation plaquettaire au collagène; experiment: Collagen-induced platelet aggregation in plasma of orally treated rats (ex vivo); set-up: species or system rats de souche Wistar; conditions: Rattus norvegicus, 100 mg/kg oral, 3 hours after treatment, versus control, collagen (bovine tendon extract), read-out: Pourcentage d'inhibition Collagène
Description: (§1) Chez des rats de souche Wistar, on effectue un prélèvement sanguin dans la veine jugulaire. A partir de ce sang citraté et après centrifugation, on reconstitue un plasma contenant 600 000 ± 20 000 plaquettes par mm^3, qui servira dans toutes les mesures d'agrégation.
(§2) On place 0,4 ml de plasma dans un tube siliconé pourvu d'une barre aimantée elle-même siliconée. Le tube est introduit dans un agrégomètre couplé à un appareil permettant d'enregistrer les variations de densité optique. Lorsque la transmission de la lumière a atteint une valeur stable, on introduit dans le tube 0,5 ml d'une solution contenant 10 µM d'A.D.P. (Adénosine-Di Phosphate).
(§3) L'agrégation des plaquettes provoque alors une augmentation de la transmission lumineuse suivie d'une diminution consécutive à la phase de désagrégation.
(§4) La variation maximale de densité optique ainsi déterminée caractérise l'intensité de l'agrégation.
La solution d'A.D.P. est remplacée par une solution de collagène (extrait de tendons bovins).
(§5) Différents lots de 20 rats sont uiilisés, chaque lot recevant un dérivé à tester par la vcie orale, à la dose de 100 mg/kg de poids corporel. Les résultats obtenus au cours de ces 2 essais sont rapportés dans le Tableau I suivant qui indique le pourcentage d'inhibition de l'agrégation plaquettaire obtenu, par rapport au témoin, 3 heures après le traitement par le médicament de l'invention, dans le test de l'A.D.P. et au collagène.

[2] = system: oedème généralisé à l'ovalbumine; experiment: Ovalbumin-induced generalised oedema; format: in vivo; conditions: po, rat, 100 mg/kg per os 1 h before and together with ovalbumin
Description: Une injection intrapéritonéale simultanée de 1 ml d'ovalbumine et de 0,5 ml d'une solution aqueuse de bleu Evans à 1 % est effectuée sur le rat. D'autre part, on administre per os aux animaux du lot traité 100 mg/kg du dérivé à tester 1 heure avant et en même temps que l'ovalbumine. L'intensité du phénomène ainsi provoqué est notée par un chiffre allant de 1 à 5 suivant la progression du syndrome inflammatoire. On détermine ainsi la moyenne de l'intensité oedémateuse et le pourcentage de diminution de la réaction oedémateuse par rapport au témoin, en fonction du temps.
Les pourcentages d'activité anti-inflammatoire obtenus à la 2ème heure et 3ème heure après l'injection d'ovalbumine sont consignés dans le Tableau III suivant.

[3] = system: oedème localisé provoqué par la carragénine; experiment: Carrageenan-induced localised paw oedema; format: in vivo; conditions: rat, 100 mg/kg oral (1 h before, at injection, 1 h and 2.5 h after)
Description: Une solution de carragénine (0,1 ml) à 1 % est injectée dans les fléchisseurs métatarsiens de la patte postérieure droite du rat au temps O. Les animaux du lot traité reçoivent en outre, par la voie orale, 100 mg par kg du dérivé à tester respectivement 1 heure avant, en même temps que l'injection de l'agent phlogogène, puis 1 heure et 2 heures et demi après. Les mesures qui sont effectuées à l'aide du micromètre de ROCH aux temps 0, 1 heure, 2 heures, 3 heures et 5 heures après l'administration de la carragénine permettent de déterminer, en fonction du temps, le pourcentage d'activité anti-inflammatoire par comparaison avec le lot témoin.

[4] = system: agrégation plaquettaire à l'A.D.P.; experiment: ADP-induced platelet aggregation in plasma of orally treated rats (ex vivo); set-up: species or system rats de souche Wistar; conditions: Rattus norvegicus, 100 mg/kg oral, 3 hours after treatment, versus control, 10 µM A.D.P., read-out: Pourcentage d'inhibition A.D.P.
Description: as §1, §2, §3, §4, §5

[5] = 2 h after ovalbumin injection, read-out: Pourcentage d'activité anti-inflammatoire 2ème heure
[6] = 3 h after ovalbumin injection, read-out: Pourcentage d'activité anti-inflammatoire 3ème heure
[7] = 1 h after carrageenan, read-out: pourcentage d'activité anti-inflammatoire Ière heure
[8] = 2 h after carrageenan, read-out: pourcentage d'activité anti-inflammatoire 2ème heure
[9] = 3 h after carrageenan, read-out: pourcentage d'activité anti-inflammatoire 3ème heure
[10] = 5 h after carrageenan, read-out: pourcentage d'activité anti-inflammatoire 5ème heure

Row | SMILES | inhibition at 100 mg/kg [1] [%] | inhibition in vivo at 100 mg/kg [2, 5] [%] | inhibition in vivo at 100 mg/kg [2, 6] [%] | inhibition in vivo at 100 mg/kg [3, 7] [%] | inhibition in vivo at 100 mg/kg [3, 8] [%] | inhibition in vivo at 100 mg/kg [3, 9] [%] | inhibition in vivo at 100 mg/kg [3, 10] [%] | inhibition at 100 mg/kg [4] [%]
1 | O=c1[nH]c(-c2ccccc2)cc2sccc12 [dérivé 1, Phényl-6 thiéno(3,2-c)pyridone-4] | 91.4 | 45 | 52 | 35 | 39 | 45 | 49 | 62
2 | O=c1[nH]c(-c2ccc(F)cc2)cc2sccc12 [dérivé 2, p-fluorophényl-6 thiéno(3,2-c)pyridone-4] | 91.7 | 48 | 54 | 37 | 41 | 46 | 50 | 60.5
3 | O=c1[nH]c(-c2ccccc2Cl)cc2sccc12 [dérivé 3, o-chlorophényl-6 thiéno(3,2-c)pyridone-4] | 92 | 48 | 55 | 37 | 40 | 45 | 48 | 58.8
4 | O=c1[nH]c(-c2ccc(Cl)cc2)cc2sccc12 [dérivé 4, p-chlorophényl-6 thiéno(3,2-c)pyridone-4] | 90.5 | 47 | 53 | 41 | 44 | 48 | 52 | 61.2
5 | Cc1ccc(-c2cc3sccc3c(=O)[nH]2)cc1 [dérivé 5, p-tolyl-6 thiéno(3,2-c)pyridone-4] | 91.4 | 50 | 55 | 38 | 41 | 46 | 51 | 62.6
6 | COc1ccc(-c2cc3sccc3c(=O)[nH]2)cc1 [dérivé 6, p-méthoxyphényl-6 thiéno(3,2-c)pyridone-4] | 91.7 | 52 | 58 | 40 | 43 | 49 | 52 | 62.2
7 | COc1ccc(-c2cc3sccc3c(=O)[nH]2)cc1OC [dérivé 7, (diméthoxy-3,4 phényl)-6 thiéno(3,2-c)pyrido-ne-4] | 90.6 | 48 | 55 | 40 | 44 | 48 | 51 | 61.7
8 | COc1cc(-c2cc3sccc3c(=O)[nH]2)cc(OC)c1OC [dérivé 8, (triméthoxy-3,4,5 phényl)-6 thiéno(3,2-c)py-ridone-4] | 92.2 | 46 | 53 | 36 | 39 | 45 | 59 | 60.4
9 | O=c1[nH]c(-c2ccccc2[N+](=O)[O-])cc2sccc12 [dérivé 9, o-nitrophényl-6 thiéno(3,2-c)pyridone-4] | 90.8 | 46 | 52 | 38 | 41 | 46 | 50 | 59.1
10 | O=c1[nH]c(-c2ccc([N+](=O)[O-])cc2)cc2sccc12 [dérivé 10, p-nitrophényl-6 thiéno(3,2-c)pyridone-4] | 90.2 | 49 | 55 | 41 | 45 | 51 | 53 | 60.4
11 | O=c1[nH]c(-c2cccc(C(F)(F)F)c2)cc2sccc12 [dérivé 11, m-trifluorométhylphényl-6 thiéno(3,2-c)pyri-done-4] | 90.7 | 51 | 57 | 40 | 44 | 49 | 52 | 60.1
12 | O=c1[nH]c(-c2ccccc2)cc2sc(Cl)cc12 [dérivé 12, Chloro-2 phényl-6 thiéno(3,2-c)pyridone-4] | 91.4 | 45 | 52 | 36 | 40 | 46 | 50 | 60.6
13 | Cc1cc2c(=O)[nH]c(-c3ccccc3)cc2s1 [dérivé 13, Méthyl-2 phényl-6 thiéno(3,2-c)pyridone-4] | 90.5 | 46 | 53 | 38 | 42 | 47 | 50 | 61.5
14 | O=c1[nH]c(-c2cccnc2)cc2sccc12 [dérivé 14, (Pyridyl-3)-6 thiéno(3,2-c)pyridone-4] | 91.2 | 48 | 54 | 38 | 41 | 47 | 50 | 60.8
15 | O=c1[nH]c(-c2ccccc2)cc2ccsc12 [dérivé 15, Phényl-5 thiéno(2,3-c)pyridone-7] | 90.8 | 47 | 53 | 39 | 43 | 48 | 51 | 62.5
16 | O=c1[nH]c(-c2ccccc2Cl)cc2ccsc12 [dérivé 16, o-chlorophényl-5 thiéno(2,3-c)pyridone-7] | 90.2 | 46 | 54 | 37 | 41 | 47 | 50 | 60.1
17 | O=c1[nH]c(-c2ccccc2)cc2occc12 [dérivé 17, Phényl-6 furo(3,2-c)pyridone-4] | 90.4 | 45 | 51 | 41 | 44 | 49 | 51 | 59.8
